According to patent US7709498B2, “Quinoline derivatives as antibacterial agents” (Janssen Pharmaceutica N.V., priority 2005, dated 2010):
Values after ≈ are worked out from the molar mass of the structure shown.

How the values were obtained:
Type in all cases: cell-based
[1] = system: methicilline resistant Staphylococcus aureus (MRSA) (a clinical isolate from the University of Antwerp); test: Microtitre plate assay, IC90 determination, STA RMETH; details: 90% inhibitory concentration for bacterial growth, 37° C., resazurin fluorescence; for IC90 (μg/ml) STA RMETH: 24 hours; for IC90: Staphylococcus aureus, MRSA, 24 h, read-out: IC90 (μg/ml) STA RMETH
Method: (§1) The bacteria used in this study were grown overnight in flasks containing 100 ml Mueller-Hinton Broth (Becton Dickinson—cat. no. 275730) in sterile de-ionized water, with shaking, at 37° C. Stocks (0.5 ml/tube) were stored at −70° C. until use. Bacteria titrations were performed in microtiter plates to detect the TCID50, in which the TCID50 represents the dilution that gives rise to bacterial growth in 50% of inoculated cultures.
(§2) In general, an inoculum level of approximately 100 TCID50 was used for susceptibility testing.
(§3) Flat-bottom, sterile 96-well plastic microtiter plates were filled with 180 μl of sterile deionized water, supplemented with 0.25% BSA. Subsequently, stock solutions (7.8× final test concentration) of compounds were added in 45 μl volumes in column 2. Serial five-fold dilutions (45 μl in 180 μl) were made directly in the microtiter plates from column 2 to reach column 11. Untreated control samples with (column 1) and without (column 12) inoculum were included in each microtiter plate. Depending on the bacteria type, approximately 10 to 60 CFU per well of bacteria inoculum (100 TCID50), in a volume of 100 μl in 2.8× Mueller-Hinton broth medium, was added to the rows A to H, except column 12. The same volume of broth medium without inoculum was added to column 12 in row A to H. The cultures were incubated at 37° C. for 24 hours under a normal atmosphere (incubator with open air valve and continuous ventilation). At the end of incubation, one day after inoculation, the bacterial growth was quantitated fluorometrically. Therefore resazurin (0.6 mg/ml) was added in a volume of 20 μl to all wells 3 hours after inoculation, and the plates were re-incubated overnight. A change in colour from blue to pink indicated the growth of bacteria. The fluorescence was read in a computer-controlled fluorometer (Cytofluor Biosearch) at an excitation wavelength of 530 nm and an emission wavelength of 590 nm. The % growth inhibition achieved by the compounds was calculated according to standard methods. The IC90 (expressed in μg/ml) was defined as the 90% inhibitory concentration for bacterial growth.
(§4) BSU 3639 means Bacillus subtilis (ATCC43639); ECO 25922 means Escherichia coli (ATCC25922); EFA 14506 means Enterococcus faecalis (ATCC14506); EFA 29212 means Enterococcus faecalis (ATCC29212); LMO 49594 means Listeria monocytogenes (ATCC49594); PAE 27853 means Pseudomonas aeruginosa (ATCC27853); SMU 33402 means Streptococcus mutans (ATCC33402); SPN 6305 means Streptococcus pneumoniae (ATCC6305); SPY 8668 means Streptococcus pyogens (ATCC8668); STA 43300 means Staphylococcus aureus (ATCC43300); STA 25923 means Staphylococcus aureus (ATCC25923); STA 29213 means Staphylococcus aureus (ATCC29213); STA RMETH means methicilline resistant Staphylococcus aureus (MRSA) (a clinical isolate from the University of Antwerp). ATCC means American type tissue culture.

[2] = system: Staphylococcus aureus (ATCC25923); test: Microtitre plate assay, IC90 determination, STA 25923; details: 90% inhibitory concentration for bacterial growth, 37° C., resazurin fluorescence; for IC90 (μg/ml) STA 25923: 24 hours; for IC90: Staphylococcus aureus, ATCC25923, 24 h, read-out: IC90 (μg/ml) STA 25923
Method: as §1, §2, §3, §4

[3] = system: Pseudomonas aeruginosa (ATCC27853); test: Microtitre plate assay, IC90 determination, PAE 27853; details: 90% inhibitory concentration for bacterial growth, 37° C., resazurin fluorescence; for IC90 (μg/ml) PAE 27853: 24 hours
Method: as §1, §2, §3, §4

[4] = system: Streptococcus pneumoniae (ATCC6305); test: Microtitre plate assay, IC90 determination, SPN 6305; details: 90% inhibitory concentration for bacterial growth, 37° C., resazurin fluorescence; for IC90 (μg/ml) SPN 6305: 24 hours; for IC90: Streptococcus pneumoniae, ATCC6305, 24 h, read-out: IC90 (μg/ml) SPN 6305
Method: as §1, §2, §3, §4

[5] = system: Staphylococcus aureus (ATCC29213); test: Microtitre plate assay, IC90 determination, STA 29213; details: 90% inhibitory concentration for bacterial growth, 37° C., 24 hours, resazurin fluorescence, read-out: IC90 (μg/ml) STA 29213
Method: as §1, §2
(§5) Flat-bottom, sterile 96-well plastic microtiter plates were filled with 180 μl of sterile deionized water, supplemented with 0.25% BSA. Subsequently, stock solutions (7.8× final test concentration) of compounds were added in 45 μl volumes in column 2. Serial five-fold dilutions (45 μl in 180 μl) were made directly in the microtiter plates from column 2 to reach column 11. Untreated control samples with (column 1) and without (column 12) inoculum were included in each microtiter plate. […] At the end of incubation, one day after inoculation, the bacterial growth was quantitated fluorometrically. […] The fluorescence was read in a computer-controlled fluorometer (Cytofluor Biosearch) at an excitation wavelength of 530 nm and an emission wavelength of 590 nm. The % growth inhibition achieved by the compounds was calculated according to standard methods. […]

[6] = system: Enterococcus faecalis (ATCC29212); test: Microtitre plate assay, IC90 determination, EFA 29212; details: 90% inhibitory concentration for bacterial growth, 37° C., resazurin fluorescence; for IC90: Enterococcus faecalis, ATCC29212, 24 h, read-out: IC90 (μg/ml) EFA 29212
Method: as §1, §2, §3, §4

[7] = system: Listeria monocytogenes (ATCC49594); test: Microtitre plate assay, IC90 determination, LMO 49594; details: 90% inhibitory concentration for bacterial growth, 37° C., resazurin fluorescence; for IC90 (μg/ml) LMO 49594: 24 hours
Method: as §1, §2, §3, §4

[8] = system: Streptococcus mutans (ATCC33402); test: Microtitre plate assay, IC90 determination, SMU 33402; details: 90% inhibitory concentration for bacterial growth, 37° C., resazurin fluorescence; for IC90 (μg/ml) SMU 33402: 24 hours
Method: as §1, §2, §3, §4

[9] = system: Streptococcus pyogens (ATCC8668); test: Microtitre plate assay, IC90 determination, SPY 8668; details: 90% inhibitory concentration for bacterial growth, 37° C., resazurin fluorescence; for IC90 (μg/ml) SPY 8668: 24 hours
Method: as §1, §2, §3, §4

[10] = system: Bacillus subtilis (ATCC43639); test: Microtitre plate assay, IC90 determination, BSU 43639; details: 90% inhibitory concentration for bacterial growth, 37° C., resazurin fluorescence; for IC90: Bacillus subtilis, ATCC43639, 24 h, read-out: IC90 (μg/ml) BSU 43639
Method: as §1, §2, §3, §4

[11] = system: Enterococcus faecalis (ATCC14506); test: Microtitre plate assay, IC90 determination, EFA 14506; details: 90% inhibitory concentration for bacterial growth, 37° C., resazurin fluorescence; for IC90: Enterococcus faecalis, ATCC14506, 24 h, read-out: IC90 (μg/ml) EFA 14506
Method: as §1, §2, §3, §4

[12] = system: Staphylococcus aureus (ATCC43300); test: Microtitre plate assay, IC90 determination, STA 43300; details: 90% inhibitory concentration for bacterial growth, 37° C., 24 hours, resazurin fluorescence
Method: as §1, §2, §3, §4

[13] = system: Escherichia coli (ATCC25922); test: Microtitre plate assay, IC90 determination, ECO 25922; details: 90% inhibitory concentration for bacterial growth, 37° C., 24 hours, resazurin fluorescence, read-out: IC90 (μg/ml) ECO 25922
Method: as §1, §2, §5

COc1nc2ccc(Br)cc2cc1C(c1ccccc1)C(O)(CCN1CCN(C)CC1)c1ccc2ccccc2c1 (racemic) [Compound 137]
IC90 (μg/ml) STA RMETH [1]: 21.2 µg/mL (≈ 34.7 µM)
IC90 (μg/ml) STA 25923 [2]: 8.4 µg/mL (≈ 13.8 µM)
IC90 (μg/ml) PAE 27853 [3]: 21.2 µg/mL (≈ 34.7 µM)
IC90 (μg/ml) SPN 6305 [4]: 23.8 µg/mL (≈ 39 µM)

COc1nc2ccc(Br)cc2cc1C(c1ccccc1)C(O)(CCn1ccnc1)c1ccccc1 (centres unmarked) [Compound 50]
IC90 (μg/ml) STA RMETH [1]: 10.5 µg/mL (≈ 19.9 µM)
IC90 [5]: 26.5 µg/mL (≈ 50.1 µM)
IC90 [6]: 10.5 µg/mL (≈ 19.9 µM)
IC90 (μg/ml) LMO 49594 [7]: 23.6 µg/mL (≈ 44.7 µM)
IC90 (μg/ml) SMU 33402 [8]: 21.0 µg/mL (≈ 39.7 µM)
IC90 (μg/ml) SPY 8668 [9]: 26.5 µg/mL (≈ 50.1 µM)
IC90 [10]: 10.5 µg/mL (≈ 19.9 µM)

COc1nc2ccc(Br)cc2cc1C(c1ccccc1)C(O)(CCN(C)C)c1cccc2ccccc12 (centres unmarked) [Compound 13]
IC90 (μg/ml) EFA 14506 ([11]; 24 hours): 11.1 µg/mL (≈ 20 µM)
IC90 (μg/ml) STA 43300 [12]: 11.1 µg/mL (≈ 20 µM)
IC90 (μg/ml) STA 25923 [2]: 11.1 µg/mL (≈ 20 µM)
IC90 (μg/ml) EFA 29212 ([6]; 24 hours): 8.8 µg/mL (≈ 15.8 µM)
IC90 (μg/ml) PAE 27853 [3]: 2.2 µg/mL (≈ 3.96 µM)
IC90 (μg/ml) LMO 49594 [7]: 11.1 µg/mL (≈ 20 µM)
IC90 (μg/ml) SPN 6305 [4]: 2.8 µg/mL (≈ 5.04 µM)
IC90 (μg/ml) SMU 33402 [8]: 3.5 µg/mL (≈ 6.3 µM)
IC90 (μg/ml) SPY 8668 [9]: 8.8 µg/mL (≈ 15.8 µM)
IC90 (μg/ml) BSU 43639 ([10]; 24 hours): 11.1 µg/mL (≈ 20 µM)

COc1nc2ccc(Br)cc2cc1C(c1ccccc1)C(O)(CCN1CCCCC1)c1cccc2ccccc12 (centres unmarked) [Compound 145]
IC90 [11]: 23.7 µg/mL (≈ 39.8 µM)
IC90 [4]: 9.4 µg/mL (≈ 15.8 µM)

COc1nc2ccc(Br)cc2cc1C(c1ccccc1)C(O)(CCn1ccnc1)c1ccccc1 (centres unmarked) [Compound 49]
IC90 [1]: 11.8 µg/mL (≈ 22.3 µM)
IC90 [2]: 5.9 µg/mL (≈ 11.2 µM)
IC90 (μg/ml) LMO 49594 [7]: 10.5 µg/mL (≈ 19.9 µM)
IC90 [4]: 13.3 µg/mL (≈ 25.2 µM)
IC90 ([8]; Streptococcus mutans, ATCC33402, 24 h, read-out: IC90 (μg/ml) SMU 33402): 10.5 µg/mL (≈ 19.9 µM)
IC90 (μg/ml) SPY 8668 [9]: 10.5 µg/mL (≈ 19.9 µM)

CSc1nc2ccc(Br)cc2cc1C(c1ccccc1)C(O)(CCN(C)C)c1ccccc1 (centres unmarked) [Compound 32]
IC90 [13]: 11.7 µg/mL (≈ 22.4 µM)
IC90 [1]: 13.1 µg/mL (≈ 25.1 µM)
IC90 (μg/ml) STA 43300 [12]: 13.1 µg/mL (≈ 25.1 µM)
IC90 [2]: 9.3 µg/mL (≈ 17.8 µM)
IC90 [6]: 4.6 µg/mL (≈ 8.82 µM)
IC90 ([3]; Pseudomonas aeruginosa, ATCC27853, 24 h, read-out: IC90 (μg/ml) PAE 27853): 10.4 µg/mL (≈ 19.9 µM)
IC90 ([7]; Listeria monocytogenes, ATCC49594, 24 h, read-out: IC90 (μg/ml) LMO 49594): 4.6 µg/mL (≈ 8.82 µM)
IC90 (μg/ml) SPN 6305 [4]: 13.1 µg/mL (≈ 25.1 µM)
IC90 (μg/ml) SMU 33402 [8]: 4.6 µg/mL (≈ 8.82 µM)
IC90 ([9]; Streptococcus, ATCC8668, 24 h, read-out: IC90 (μg/ml) SPY 8668): 4.6 µg/mL (≈ 8.82 µM)

COc1nc2ccc(Br)cc2cc1C(c1ccccc1)C(O)(CCN(C)C)c1ccc2ccccc2c1 (centres unmarked) [Compound 45]
IC90 [11]: 12.4 µg/mL (≈ 22.3 µM)
IC90 [10]: 11.1 µg/mL (≈ 20 µM)
